This passage reports IC50 results from patent publication US11970498B2, “CDK2 inhibitors” (BLUEPRINT MEDICINES CORPORATION, priority 2021, dated 2024).

SMILES strings stand for the structures.

In assay [1] the target is CDK2/Cyclin E (Homo sapiens, UniProt P24941). As to the kind of experiment: CDK2/Cyclin E biochemical phosphorylation assay (Caliper mobility shift). The conditions noted are these: apparent IC50; 1.0 mM ATP or ATP Km; 1.25 nM enzyme; 25° C.; read-out: CDK2/cyclin E1 IC50. The gist of the method:
(§1)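 7.5 µM 5-FAM-QSPKKG-CONH2 peptide phosphorylated by CDK2/Cyclin E (1.25 nM) or GST-CDK1/Cyclin B1 (1.5 nM) at 1.0 mM ATP or ATP Km, in HEPES pH 7.5, MgCl2, Brij-35, DTT, 1% DMSO, 25 °C to 10–20% conversion. EDTA stop; Caliper mobility-shift readout; apparent IC50 from percent activity vs log concentration.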

Assay [2] has as its target T1, CDK1/Cyclin B1, GST-tag (Homo sapiens, UniProt P06493).
T1 construct: GST
Briefly: CDK1/Cyclin B1 biochemical phosphorylation assay (Caliper mobility shift). The conditions noted are these: apparent IC50; 1.0 mM ATP or ATP Km; 1.5 nM enzyme; 25° C. The gist of the method:
as §1

T1 sequence (P06493 whole entry): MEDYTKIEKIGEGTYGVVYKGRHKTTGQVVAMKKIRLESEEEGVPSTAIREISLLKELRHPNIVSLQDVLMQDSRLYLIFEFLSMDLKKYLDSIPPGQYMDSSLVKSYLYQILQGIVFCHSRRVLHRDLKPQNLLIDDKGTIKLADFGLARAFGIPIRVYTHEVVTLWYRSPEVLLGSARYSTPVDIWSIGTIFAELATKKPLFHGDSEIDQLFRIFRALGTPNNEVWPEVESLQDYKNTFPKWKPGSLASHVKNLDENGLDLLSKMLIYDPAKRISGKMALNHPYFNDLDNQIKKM
T1 sequence (P14635 whole entry partner): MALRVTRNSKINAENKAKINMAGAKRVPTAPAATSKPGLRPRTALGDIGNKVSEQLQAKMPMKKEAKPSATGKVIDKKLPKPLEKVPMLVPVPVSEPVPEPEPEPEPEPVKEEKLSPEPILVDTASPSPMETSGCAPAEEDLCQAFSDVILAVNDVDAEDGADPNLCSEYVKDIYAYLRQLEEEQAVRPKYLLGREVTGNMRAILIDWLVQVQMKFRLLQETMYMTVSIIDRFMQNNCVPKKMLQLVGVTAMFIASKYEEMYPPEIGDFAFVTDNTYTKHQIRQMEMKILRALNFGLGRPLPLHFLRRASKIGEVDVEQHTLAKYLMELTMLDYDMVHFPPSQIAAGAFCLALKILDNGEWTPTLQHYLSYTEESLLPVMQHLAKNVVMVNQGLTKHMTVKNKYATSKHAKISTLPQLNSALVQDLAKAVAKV

Take `COc1cc(Nc2cnc3cnn(CC4C5COCC54)c3n2)n[nH]1` (stereo not shown) [Example 138, 1-((3-oxabicyclo[3.1.0]hexan-6-yl)methyl)-N-(5-methoxy-1H-pyrazol-3-yl)-1H-pyrazolo[3,4-b]pyrazin-6-amine]: the IC50 in assay [1] was 20 to 30 nM; in assay [2] it was at least 500 nM.

For `COc1cc(Nc2cnc3cnn([C@@H](C(F)F)C4CCOCC4)c3n2)n[nH]1` (single isomer, unassigned) [Example 192, (R)-1-(2,2-difluoro-1-(tetrahydro-2H-pyran-4-yl)ethyl)-N-(5-methoxy-1H-pyrazol-3-yl)-1H-pyrazolo[3,4-b]pyrazin-6-amine or (S)-1-(2,2-difluoro-1-(tetrahydro-2H-pyran-4-yl)ethyl)-N-(5-methoxy-1H-pyrazol-3-yl)-1H-pyrazolo[3,4-b]pyrazin-6-amine], the IC50 in assay [1] was over 100 nM; in assay [2], at least 500 nM.

Take `CC(C1CCCOC1)n1ncc2ncc(Nc3cc(OC(F)F)[nH]n3)nc21` (single isomer, unassigned) [Example 218]: the IC50 was at most 10 nM in assay [1] and under 100 nM in assay [2].

For the molecule `C[C@@H]([C@@H]1COCCO1)n1ncc2ncc(Nc3cc(OC(F)F)[nH]n3)nc21` (single isomer, unassigned) [Example 211], the figures for the IC50 in assay [1] and in assay [2] were 30 to 100 nM and at least 500 nM, respectively.

In the case of `COc1cc(Nc2cnc3cnn([C@@H](C)C4CCOCC4)c3n2)n[nH]1` [Example 22, (S)—N-(5-methoxy-1H-pyrazol-3-yl)-1-(1-(tetrahydro-2H-pyran-4-yl)ethyl)-1H-pyrazolo[3,4-b]pyrazin-6-amine], the figures for the IC50 in assay [1] and in assay [2] were at most 10 nM and 100 to 500 nM, respectively.

Regarding `COc1cc(Nc2cnc3cnn([C@@H](C)c4cc(F)ccn4)c3n2)n[nH]1` (single isomer, unassigned) [Example 187, (R)-1-(1-(4-fluoropyridin-2-yl)ethyl)-N-(5-methoxy-1H-pyrazol-3-yl)-1H-pyrazolo[3,4-b]pyrazin-6-amine or (S)-1-(1-(4-fluoropyridin-2-yl)ethyl)-N-(5-methoxy-1H-pyrazol-3-yl)-1H-pyrazolo[3,4-b]pyrazin-6-amine], the figures for the IC50 in assay [1] and in assay [2] were over 100 nM and at least 500 nM, respectively.

In the case of `C[C@@H](O)c1nn([C@@H](C)c2cccnc2)c2nc(Nc3cc(OC(F)F)[nH]n3)cnc12` (single isomer, unassigned) [Example 177, (R)-1-(6-((5-(difluoromethoxy)-1H-pyrazol-3-yl)amino)-1-((S)-1-(pyridin-3-yl)ethyl)-1H-pyrazolo[3,4-b]pyrazin-3-yl)ethan-1-ol or (S)-1-(6-((5-(difluoromethoxy)-1H-pyrazol-3-yl)amino)-1-((S)-1-(pyridin-3-yl)ethyl)-1H-pyrazolo[3,4-b]pyrazin-3-yl)ethan-1-ol], the values for the IC50 in assay [1] and in assay [2] were at most 10 nM and at least 500 nM, respectively.

`FC(F)Oc1cc(Nc2cnc3cnn(C[C@@H]4COCCO4)c3n2)n[nH]1` [Example 88, (R)-1-((1,4-dioxan-2-yl)methyl)-N-(5-(difluoromethoxy)-1H-pyrazol-3-yl)-1H-pyrazolo[3,4-b]pyrazin-6-amine]: the IC50 in assay [1] is at most 10 nM; in assay [2], at least 500 nM.

As for `FC[C@@H](C1CCOCC1)n1ncc2ncc(Nc3cc(OC(F)F)[nH]n3)nc21` (single isomer, unassigned) [Example 31], the values for the IC50 in assay [1] and in assay [2] were at most 10 nM and under 100 nM, respectively.

For `C[C@H](C1CC1)n1ncc2ncc(Nc3cc(OC(F)F)[nH]n3)nc21` [Example 55, (R)-1-(1-cyclopropylethyl)-N-(5-(difluoromethoxy)-1H-pyrazol-3-yl)-1H-pyrazolo[3,4-b]pyrazin-6-amine], the figures for the IC50 in assay [1] and in assay [2] were at most 10 nM and at least 500 nM, respectively.

As to `FC(F)Oc1cc(Nc2cnc3cnn(C[C@@H]4CC4(F)F)c3n2)n[nH]1` (single isomer, unassigned) [Example 163, (S)-1-((2,2-difluorocyclopropyl)methyl)-N-(5-(difluoromethoxy)-1H-pyrazol-3-yl)-1H-pyrazolo[3,4-b]pyrazin-6-amine or (R)-1-((2,2-difluorocyclopropyl)methyl)-N-(5-(difluoromethoxy)-1H-pyrazol-3-yl)-1H-pyrazolo[3,4-b]pyrazin-6-amine], the IC50 is at most 10 nM in assay [1] and at least 500 nM in assay [2].

Consider `FC(F)Oc1cc(Nc2cnc3cnn(C[C@@H]4CCCCO4)c3n2)n[nH]1` [Example 103, (S)-N-(5-(difluoromethoxy)-1H-pyrazol-3-yl)-1-((tetrahydro-2H-pyran-2-yl)methyl)-1H-pyrazolo[3,4-b]pyrazin-6-amine], for which the IC50 in assay [1] was 20 to 30 nM; in assay [2], at least 500 nM.

As to `FC(F)Oc1cc(Nc2cnc3cnn(Cc4cncs4)c3n2)n[nH]1` [Example 53, N-(5-(difluoromethoxy)-1H-pyrazol-3-yl)-1-(thiazol-5-ylmethyl)-1H-pyrazolo[3,4-b]pyrazin-6-amine], the IC50 in assay [1] was at most 10 nM; in assay [2], at least 500 nM.

Turning to `COc1cc(Nc2cnc3cnn(CC4(C)COC4)c3n2)n[nH]1` [Example 133, N-(5-methoxy-1H-pyrazol-3-yl)-1-((3-methyloxetan-3-yl)methyl)-1H-pyrazolo[3,4-b]pyrazin-6-amine], the IC50 was 20 to 30 nM in assay [1] and at least 500 nM in assay [2].

Turning to `C[C@@H](O)c1nn([C@@H](C)C2CCOCC2)c2nc(Nc3cc(OC(F)F)[nH]n3)cnc12` (single isomer, unassigned) [Example 182, (S)-1-(6-((5-(difluoromethoxy)-1H-pyrazol-3-yl)amino)-1-((S)-1-(tetrahydro-2H-pyran-4-yl)ethyl)-1H-pyrazolo[3,4-b]pyrazin-3-yl)ethan-1-ol or (R)-1-(6-((5-(difluoromethoxy)-1H-pyrazol-3-yl)amino)-1-((S)-1-(tetrahydro-2H-pyran-4-yl)ethyl)-1H-pyrazolo[3,4-b]pyrazin-3-yl)ethan-1-ol], the values for the IC50 in assay [1] and in assay [2] were at most 10 nM and at least 500 nM, respectively.

Turning to `C[C@H](c1cccc(F)n1)n1ncc2ncc(Nc3cc(OC(F)F)[nH]n3)nc21` (single isomer, unassigned) [Example 155, (R)-N-(5-(difluoromethoxy)-1H-pyrazol-3-yl)-1-(1-(6-fluoropyridin-2-yl)ethyl)-1H-pyrazolo[3,4-b]pyrazin-6-amine or (S)-N-(5-(difluoromethoxy)-1H-pyrazol-3-yl)-1-(1-(6-fluoropyridin-2-yl)ethyl)-1H-pyrazolo[3,4-b]pyrazin-6-amine], the results for the IC50 in assay [1] and in assay [2] were 30 to 100 nM and at least 500 nM, respectively.

As for `FC(F)Oc1cc(Nc2cnc3cnn([C@@H](c4cccnc4)C4CC4)c3n2)n[nH]1` (single isomer, unassigned) [Example 148, (S)-1-(cyclopropyl(pyridin-3-yl)methyl)-N-(5-(difluoromethoxy)-1H-pyrazol-3-yl)-1H-pyrazolo[3,4-b]pyrazin-6-amine or (R)-1-(cyclopropyl(pyridin-3-yl)methyl)-N-(5-(difluoromethoxy)-1H-pyrazol-3-yl)-1H-pyrazolo[3,4-b]pyrazin-6-amine], the IC50 is at most 10 nM in assay [1] and at least 500 nM in assay [2].

Regarding `CC1(C)C[C@H](Cn2ncc3ncc(Nc4cc(OC(F)F)[nH]n4)nc32)C(=O)N1` (single isomer, unassigned) [Example 184, (R)-3-((6-((5-(difluoromethoxy)-1H-pyrazol-3-yl)amino)-1H-pyrazolo[3,4-b]pyrazin-1-yl)methyl)-5,5-dimethylpyrrolidin-2-one or (S)-3-((6-((5-(difluoromethoxy)-1H-pyrazol-3-yl)amino)-1H-pyrazolo[3,4-b]pyrazin-1-yl)methyl)-5,5-dimethylpyrrolidin-2-one], the results for the IC50 in assay [1] and in assay [2] were 30 to 100 nM and at least 500 nM, respectively.

Take `C[C@@H](c1cccnc1F)n1nc(C#N)c2ncc(Nc3cc(OC(F)F)[nH]n3)nc21` [Example 63, (S)-6-((5-(difluoromethoxy)-1H-pyrazol-3-yl)amino)-1-(1-(2-fluoropyridin-3-yl)ethyl)-1H-pyrazolo[3,4-b]pyrazine-3-carbonitrile]: the IC50 in assay [1] is at most 10 nM; in assay [2], 100 to 500 nM.

Turning to `O=C1C[C@@H](Cn2ncc3ncc(Nc4cc(OC(F)F)[nH]n4)nc32)CN1` (single isomer, unassigned) [Example 21, (R)-4-((6-((5-(difluoromethoxy)-1H-pyrazol-3-yl)amino)-1H-pyrazolo[3,4-b]pyrazin-1-yl)methyl)pyrrolidin-2-one or (S)-4-((6-((5-(difluoromethoxy)-1H-pyrazol-3-yl)amino)-1H-pyrazolo[3,4-b]pyrazin-1-yl)methyl)pyrrolidin-2-one], the IC50 in assay [1] is 20 to 30 nM; in assay [2], at least 500 nM.

Regarding `COc1cc(Nc2cnc3cnn(Cc4cccnc4)c3n2)n[nH]1` [Example 135, N-(5-methoxy-1H-pyrazol-3-yl)-1-(pyridin-3-ylmethyl)-1H-pyrazolo[3,4-b]pyrazin-6-amine], the values for the IC50 in assay [1] and in assay [2] were 10 to 20 nM and at least 500 nM, respectively.

`FC(F)Oc1cc(Nc2cnc3cnn(CCc4ccncc4)c3n2)n[nH]1` [Example 130, N-(5-(difluoromethoxy)-1H-pyrazol-3-yl)-1-(2-(pyridin-4-yl)ethyl)-1H-pyrazolo[3,4-b]pyrazin-6-amine]: the IC50 is at most 10 nM in assay [1] and 100 to 500 nM in assay [2].

Regarding `FC(F)Oc1cc(Nc2cnc3cnn(C[C@@]4(F)CCOC4)c3n2)n[nH]1` (single isomer, unassigned) [Example 168, (R)-N-(5-(difluoromethoxy)-1H-pyrazol-3-yl)-1-((3-fluorotetrahydrofuran-3-yl)methyl)-1H-pyrazolo[3,4-b]pyrazin-6-amine or (S)-N-(5-(difluoromethoxy)-1H-pyrazol-3-yl)-1-((3-fluorotetrahydrofuran-3-yl)methyl)-1H-pyrazolo[3,4-b]pyrazin-6-amine], the IC50 in assay [1] was 30 to 100 nM; in assay [2] it was at least 500 nM.
